Reference: publication PMC7105820, “Mutant ACVR1 Arrests Glial Cell Differentiation to Drive Tumorigenesis in Pediatric Gliomas” (Cancer Cell, 2020)

Target: T1, ACVR1 (Homo sapiens, UniProt Q04771)
T1 sequence (Q04771 21-509): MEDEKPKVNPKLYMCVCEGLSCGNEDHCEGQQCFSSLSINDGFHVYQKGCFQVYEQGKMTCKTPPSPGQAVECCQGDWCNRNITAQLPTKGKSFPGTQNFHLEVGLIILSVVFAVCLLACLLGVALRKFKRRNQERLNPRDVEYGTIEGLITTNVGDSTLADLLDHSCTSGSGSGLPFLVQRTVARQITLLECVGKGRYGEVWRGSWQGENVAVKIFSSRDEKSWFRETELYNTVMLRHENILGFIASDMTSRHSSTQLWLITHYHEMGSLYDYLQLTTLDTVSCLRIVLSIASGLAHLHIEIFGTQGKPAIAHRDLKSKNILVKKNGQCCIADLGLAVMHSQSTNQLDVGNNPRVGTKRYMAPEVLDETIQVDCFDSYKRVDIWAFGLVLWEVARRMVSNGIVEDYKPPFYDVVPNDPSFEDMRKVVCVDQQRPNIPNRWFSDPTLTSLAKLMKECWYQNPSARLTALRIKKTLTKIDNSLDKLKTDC
Experiment: ([…] Å) of the ACVR1-FKBP12 complex; IC50 from cellular NanoBRET target engagement (HEK-293)
Type: cell-based

SMILES: CCNc1cc(O)c2c(c1)/C=C/C[C@H](O)[C@H](O)C(=O)/C=C\[C@@H](C)[C@H](C)OC2=O [E6201, (3S,4R,5Z,8S,9S,11E)-14-(ethylamino)-8,9,16-trihydroxy-3,4-dimethyl-3,4,9,19-tetrahydro-1H-2-benzoxacyclotetradecine-1,7 (8H)-dione]
- IC50: ~250 nM
